Measurements as given in patent EP0302824A2 (priority 1987, dated 1989).
Like-named read-outs stand apart in the source and are kept apart here.

What was measured:
[1] = Sw = solubility in water
[2] = assay type: physicochemical; settings: coated maize kernels in 200 ml water, 20°C, 50 rpm
[3] = assay type: physicochemical; settings: sand column; 50 mm artificial rainfall in 48 hours; 5 g/kg a.i.
[4] = Solubility of terbufos in neat surfactants and PEGs, judged by eye
[5] = Solubilization of terbufos in individual and combined surfactant solutions; settings: for Terbufos Concentration (ppm) Individual Surfactant: maximum 100 ppm terbufos in solution
corn rootworms = experiment: Field control of corn rootworms by insecticide/polymer combinations applied to the seed; assay type: in vivo, Diabrotica spp.; settings: maize G 4733, 0-6 scale, 63 days after planting
[6] = Release of terbufos from coated corn cob granules into buffer; assay type: physicochemical
[7] = Time release of terbufos from coated maize seeds into buffer; assay type: physicochemical
[8] = Solubility of terbufos in water with increasing concentration of surfactant or association polymer
[9] = not given; remark: listed apart in the source

Q: Which Sw in ppm [1] does the source give for `CCOP(=S)(OCC)Oc1nc(Cl)n(C(C)C)n1` [isazofos] here?
A: 150 ppm

Q: What about the “Solubility (ppm)” value (isazophos in H₂O) of the same compound?
A: 62 ppm

Q: And the “Solubility (ppm)” value (isazophos, 1000 ppm A1, HLB ∼30)?
A: 84 ppm

Q: What about the “Solubility (ppm)” value (isazophos, 1000 ppm A2, HLB ∼30) of the same compound?
A: 58 ppm

Q: What about the “Solubility (ppm)” value (isazophos, 1000 ppm A4, HLB ∼30) of the same compound?
A: 180 ppm

Q: What about the “Solubility (ppm)” value (isazophos, 1000 ppm A5, HLB ∼30) of the same compound?
A: 11 ppm

Q: And the “Solubility (ppm)” value (isazophos, 1000 ppm AM1)?
A: 98 ppm

Q: What about the “Solubility (ppm)” value (isazophos, 1000 ppm N3, HLB 13.4) of the same compound?
A: 260 ppm

Q: What about the “Solubility (ppm)” value (isazophos, 1000 ppm N9, HLB 22) of the same compound?
A: 130 ppm

Q: And the “Solubility (ppm)” value (isazophos, 1000 ppm N11, HLB 29)?
A: 92 ppm

Q: And the “Solubility (ppm)” value (isazophos, 1000 ppm N18, HLB 17.3)?
A: 130 ppm

Q: What about the “Solubility (ppm)” value (isazophos, 1000 ppm N24, HLB 15.0) of the same compound?
A: 170 ppm

Q: What about the “Released Active Substance in % After 4 Hours Association Polymer 17.1” value [2] of the same compound?
A: 80.8%

Q: What about the “Released Active Substance in % After 4 Hours Standard Polymer 18.1” value [2] of the same compound?
A: 63.5%

Q: And the “% a.i. Analyzed in "Traditional" Coats Kernels” value [3]?
A: 68.2%

Q: What about the “% a.i. Analyzed in "Traditional" Coats Leachate” value [3] of the same compound?
A: < 0.5%

Q: And the “% a.i. Analyzed in "Traditional" Coats Sand” value [3]?
A: 22.9%

Q: And the “% a.i. Analyzed in Association Polymer Kernels” value [3]?
A: 30.1%

Q: And the “% a.i. Analyzed in Association Polymer Leachate” value [3]?
A: 34.9%

Q: And the “% a.i. Analyzed in Association Polymer Sand” value [3]?
A: 39.7%

Q: For `CCOP(=S)(OCC)SCSC(C)(C)C` [terbufos], which “solubility in neat surfactants (no water present) or polyethylene glycols, judged by eye” value ([4]; 5 µl terbufos in 200 µl of Cl, C2, C4, C7, Al, N1, N4, N5, N6, N8, N12, N24, N25, N26, PEG 200 or PEG 400) is on record?
A: Soluble

Q: And the “solubility in neat surfactants (no water present), judged by eye” value ([4]; 5 µl terbufos in 200 µl of anionic A2, A3, A5 or A6)?
A: Insoluble

Q: And the “Terbufos Concentration (ppm) Individual Surfactant” value ([5]; A2, 1000 ppm)?
A: 2.0 ppm

Q: And the “Terbufos Concentration (ppm) Combination Surfactant With C2” value ([5]; A2 with C2, 5 ml portions (1000 ppm) of each, maximum 100 ppm)?
A: 38 ppm

Q: What about the “Terbufos Concentration (ppm) Combination Surfactant With N3” value ([5]; A2 with N3, 5 ml portions (1000 ppm) of each, maximum 100 ppm) of the same compound?
A: 13 ppm

Q: And the “Terbufos Concentration (ppm) Individual Surfactant” value ([5]; A4, 1000 ppm)?
A: 3.4 ppm

Q: What about the “Terbufos Concentration (ppm) Combination Surfactant With N3” value ([5]; A4 with N3, 5 ml portions (1000 ppm) of each, maximum 100 ppm) of the same compound?
A: 28 ppm

Q: And the “Terbufos Concentration (ppm) Individual Surfactant” value ([5]; C2, 1000 ppm)?
A: 12 ppm

Q: What about the “Terbufos Concentration (ppm) Combination Surfactant” value ([5]; C2 with N3, 5 ml portions (1000 ppm) of each, maximum 100 ppm) of the same compound?
A: 64 ppm

Q: And the “Terbufos Concentration (ppm) Individual Surfactant” value ([5]; N3, 1000 ppm)?
A: 65 ppm

Q: And the “Terbufos Concentration (ppm) Individual Surfactant” value ([5]; N7, 1000 ppm)?
A: 1.1 ppm

Q: What about the “Terbufos Concentration (ppm) Combination Surfactant With C2” value ([5]; N7 with C2, 5 ml portions (1000 ppm) of each, maximum 100 ppm) of the same compound?
A: 6.7 ppm

Q: What about the “Terbufos Concentration (ppm) Combination Surfactant With N3” value ([5]; N7 with N3, 5 ml portions (1000 ppm) of each, maximum 100 ppm) of the same compound?
A: 54 ppm

Q: What about the “Terbufos Concentration (ppm) Individual Surfactant” value ([5]; N8, 1000 ppm) of the same compound?
A: 1.2 ppm

Q: And the “Terbufos Concentration (ppm) Combination Surfactant With C2” value ([5]; N8 with C2, 5 ml portions (1000 ppm) of each, maximum 100 ppm)?
A: 39 ppm

Q: What about the “Terbufos Concentration (ppm) Combination Surfactant With N3” value ([5]; N8 with N3, 5 ml portions (1000 ppm) of each, maximum 100 ppm) of the same compound?
A: 40 ppm

Q: And the “Terbufos Concentration (ppm) Individual Surfactant” value ([5]; N10, 1000 ppm)?
A: 0.7 ppm

Q: And the “Terbufos Concentration (ppm) Combination Surfactant With C2” value ([5]; N10 with C2, 5 ml portions (1000 ppm) of each, maximum 100 ppm)?
A: 36 ppm

Q: And the “Terbufos Concentration (ppm) Combination Surfactant With N3” value ([5]; N10 with N3, 5 ml portions (1000 ppm) of each, maximum 100 ppm)?
A: 38 ppm

Q: What about the “Terbufos Concentration (ppm) Individual Surfactant” value ([5]; N11, 1000 ppm) of the same compound?
A: 0.5 ppm

Q: What about the “Terbufos Concentration (ppm) Combination Surfactant With C2” value ([5]; N11 with C2, 5 ml portions (1000 ppm) of each, maximum 100 ppm) of the same compound?
A: 9.5 ppm

Q: And the “Terbufos Concentration (ppm) Combination Surfactant With N3” value ([5]; N11 with N3, 5 ml portions (1000 ppm) of each, maximum 100 ppm)?
A: 24 ppm

Q: And the “Ratings for corn rootworm damage” value (corn rootworms; Granule, 0.1 g m⁻¹)?
A: 2.2

Q: What about the “Ratings for corn rootworm damage” value (corn rootworms; seed treatment Association Polymer, 10 g/kg) of the same compound?
A: 2.6

Q: And the “Ratings for corn rootworm damage” value (corn rootworms; seed treatment PVAc/PVAl, 10 g/kg)?
A: 3.1

Q: What about the “Ratings for corn rootworm damage” value (corn rootworms; seed treatment PVAc/PVAl, 30 g/kg) of the same compound?
A: 2.8

Q: What about the “Terbufos Concentration (ppm)” value ([6]; Buffer = 10 ml (Triton = 1000 ppm), 0.5 hours) of the same compound?
A: 61 ppm

Q: And the “Terbufos Concentration (ppm)” value ([6]; Buffer = 10 ml (Triton = 1000 ppm), 1 hour)?
A: 86 ppm

Q: And the “Terbufos Concentration (ppm)” value ([6]; Buffer = 10 ml (Triton = 1000 ppm), 2 hours)?
A: 104 ppm

Q: What about the “Terbufos Concentration (ppm)” value ([6]; Buffer = 10 ml (Triton = 1000 ppm), 3 hours) of the same compound?
A: 81 ppm

Q: And the “Terbufos Concentration (ppm)” value ([6]; Buffer = 10 ml (Triton = 1000 ppm), 4 hours)?
A: 60 ppm

Q: What about the “Terbufos Concentration (ppm)” value ([6]; Buffer = 10 ml (Triton = 1000 ppm), 5 hours) of the same compound?
A: 60 ppm

Q: And the “Terbufos Concentration (ppm)” value ([6]; Buffer = 20 ml (Triton = 500 ppm), 0.5 hours)?
A: 53 ppm

Q: What about the “Terbufos Concentration (ppm)” value ([6]; Buffer = 20 ml (Triton = 500 ppm), 1 hour) of the same compound?
A: 39 ppm

Q: What about the “Terbufos Concentration (ppm)” value ([6]; Buffer = 20 ml (Triton = 500 ppm), 3 hours) of the same compound?
A: 34 ppm

Q: And the “Terbufos Concentration (ppm)” value ([6]; Buffer = 20 ml (Triton = 500 ppm), 4 hours)?
A: 44 ppm

Q: And the “Terbufos Concentration (ppm)” value ([6]; Buffer = 20 ml (Triton = 500 ppm), 5 hours)?
A: 51 ppm

Q: And the “Terbufos Concentration (ppm)” value ([6]; Buffer = 20 ml (Triton = 500 ppm), 22 hours)?
A: 29 ppm

Q: What about the “Terbufos Concentration (ppm)” value ([6]; Buffer = 100 ml (Triton = 100 ppm), 0.25 hours) of the same compound?
A: 2.7 ppm

Q: And the “Terbufos Concentration (ppm)” value ([6]; Buffer = 100 ml (Triton = 100 ppm), 0.5 hours)?
A: 3.2 ppm

Q: What about the “Terbufos Concentration (ppm)” value ([6]; Buffer = 100 ml (Triton = 100 ppm), 1 hour) of the same compound?
A: 3.3 ppm

Q: And the “Terbufos Concentration (ppm)” value ([6]; Buffer = 100 ml (Triton = 100 ppm), 1.5 hours)?
A: 4.3 ppm

Q: And the “Terbufos Concentration (ppm)” value ([6]; Buffer = 100 ml (Triton = 100 ppm), 2 hours)?
A: 4.7 ppm

Q: And the “Terbufos Concentration (ppm)” value ([6]; Buffer = 100 ml (Triton = 100 ppm), 3 hours)?
A: 4.6 ppm

Q: What about the “Terbufos Concentration (ppm)” value ([6]; Buffer = 100 ml (Triton = 100 ppm), 4 hours) of the same compound?
A: 5.9 ppm

Q: What about the “Terbufos Concentration (ppm)” value ([6]; Buffer = 100 ml (Triton = 100 ppm), 5 hours) of the same compound?
A: 5.5 ppm

Q: And the “Terbufos Concentration (ppm)” value ([6]; Buffer = 100 ml (Triton = 100 ppm), 6 hours)?
A: 5.1 ppm

Q: What about the “Terbufos Concentration (ppm)” value ([6]; Buffer = 100 ml (Triton = 100 ppm), 7 hours) of the same compound?
A: 6.7 ppm

Q: What about the “Terbufos Concentration (ppm)” value ([6]; Buffer = 100 ml (Triton = 100 ppm), 28 hours) of the same compound?
A: 7.5 ppm

Q: And the “Terbufos Concentration (ppm), Time Release from Coated Seeds” value (“Terbufos Concentration … from Coated Seeds” for short) ([7]; Association Polymer (no PVAc), Buffer pH = 5.6, 0.5 hour)?
A: 370 ppm

Q: And the “Terbufos Concentration … from Coated Seeds” value ([7]; Association Polymer (no PVAc), Buffer pH = 5.6, 2 hours)?
A: 350 ppm

Q: And the “Terbufos Concentration … from Coated Seeds” value ([7]; Association Polymer (no PVAc), Buffer pH = 5.6, 4 hours)?
A: 360 ppm

Q: What about the “Terbufos Concentration … from Coated Seeds” value ([7]; Association Polymer+PVAc, Buffer pH 5.6, 0.5 hour) of the same compound?
A: 130 ppm

Q: And the “Terbufos Concentration … from Coated Seeds” value ([7]; Association Polymer+PVAc, Buffer pH 5.6, 2 hours)?
A: 147 ppm

Q: What about the “Terbufos Concentration … from Coated Seeds” value ([7]; Association Polymer+PVAc, Buffer pH 5.6, 4 hours) of the same compound?
A: 210 ppm

Q: What about the “Terbufos Concentration … from Coated Seeds” value ([7]; Association Polymer+PVAc, Buffer pH 5.6, 26 hours) of the same compound?
A: 163 ppm

Q: What about the “Terbufos Concentration … from Coated Seeds” value ([7]; Association Polymer+PVAc, Buffer pH 5.6, 69.5 hours) of the same compound?
A: 122 ppm

Q: What about the “Terbufos Concentration … from Coated Seeds” value ([7]; Association Polymer+PVAc, Buffer pH 8.3, 0.5 hour) of the same compound?
A: 210 ppm

Q: And the “Terbufos Concentration … from Coated Seeds” value ([7]; Association Polymer+PVAc, Buffer pH 8.3, 2 hours)?
A: 240 ppm

Q: And the “Terbufos Concentration … from Coated Seeds” value ([7]; Association Polymer+PVAc, Buffer pH 8.3, 4 hours)?
A: 260 ppm

Q: And the “Terbufos Concentration … from Coated Seeds” value ([7]; Association Polymer+PVAc, Buffer pH=3.3, 2 hours)?
A: 22 ppm

Q: And the “Terbufos Concentration … from Coated Seeds” value ([7]; Association Polymer+PVAc, Buffer pH=3.3, 4 hours)?
A: 7.6 ppm

Q: What about the “Terbufos Concentration … from Coated Seeds” value ([7]; PVAc, Buffer pH=5.6, 4 hours) of the same compound?
A: 1.9 ppm

Q: What about the “Terbufos Concentration … from Coated Seeds” value ([7]; PVAc, Buffer pH=5.6, 26 hours) of the same compound?
A: 2.4 ppm

Q: And the terbufos concentration ([8]; 575 ppm surfactant a) (N3, Triton N101))?
A: 64 ppm

Q: What about the terbufos concentration ([8]; 603 ppm surfactant portion b) (half of 1206 ppm 1:1 association polymer PA 5000:N3)) of the same compound?
A: 52 ppm

Q: Which “Solubility of Carbofuran, ppm” value ([9]; 1000 ppm Alipal EP110) does the source give for `CNC(=O)Oc1cccc2c1OC(C)(C)C2` [carbofuran] here?
A: 349 ppm

Q: And the “Solubility of Carbofuran, ppm” value ([9]; 1000 ppm Ethomeen T/15)?
A: 436 ppm

Q: What about the “Solubility of Carbofuran, ppm” value ([9]; 1000 ppm Pluronic F68) of the same compound?
A: 287 ppm

Q: What about the “Solubility of Carbofuran, ppm” value ([9]; 1000 ppm Triton N101) of the same compound?
A: 370 ppm

Q: And the “increase in solubility in surfactant solution over that in water” value ([9]; Ethomeen T/15, 1000 ppm)?
A: 30%

Q: And the “Solubility of Carbofuran, ppm” value ([9]; H₂O)?
A: 330 ppm

Q: What about the “increase in solubility in surfactant solution over that in water” value ([9]; Triton (N101), 1000 ppm) of the same compound?
A: 10%
